According to ChEMBL document CHEMBL1158083, “Indole alkaloids from Cephalanceropsis gracilis” (J Nat Prod, 2006):

How the values were obtained:
Type in all cases: functional, cell-based
NCI-H460 = experiment: Cytotoxicity against human NCI-H460 cells by MTT assay
MCF7 = experiment: Cytotoxicity against human MCF7 cells by MTT assay
SF-268 = experiment: Cytotoxicity against human SF-268 cells by MTT assay

Compound `O=C1C(C2(C3(C4=Nc5ccccc5C4=O)Nc4ccccc4C3=O)Nc3ccccc3C2=O)=Nc2ccccc21` (stereo not drawn) [CEPHALINONE D] has an IC50 (NCI-H460) of 7.8 µM, an IC50 (MCF7) of 7.57 µM and an IC50 (SF-268) of 12.2 µM.
